Patent publication EP3666770A1, “NOVEL HETEROCYCLIC COMPOUNDS AS CDK8/19 INHIBITORS” (Joint Stock Company "Biocad", priority 2017, dated 2019)
Where two headings read alike, the source gives them in different places.

Columns and labels:
[1] = test system: MV4-11; assay: Cell-based antiproliferative test (AlamarBlue), MV4-11; settings: Homo sapiens, MV4-11, 120 h, 120 h incubation; average values of several tests; read-out: MV-4-11 IC50, mkM
Description: (§1) Antiproliferative activity of CDK8 inhibitors according to the present invention was measured in a cell-based test on continuous cell cultures MV4-11 (biphenotypic myelomonocytic leukemia, ATCC® CRL-9591™), KG-1 (acute myeloid leukemia, ATCC® CCL-246™), HL-60 (acute promyelocytic leukemia, ATCC® CCL-240™) using a vital stain AlamarBlue (ThermoFisher, #DAL1100). The cells were grown in RPMI-1640 (PanEco, #C330p) medium with addition of 10% FBS (Gibco, #16140-071); washed and resuspended in culture medium with 10% FBS (Gibco, #16140-071) in 96-well culture plates (Corning, #3599) with ≈ 10 ×10^3 cells in […] of medium per well. The compounds in question were dissolved in DMSO and diluted with a medium with 10% FBS (Gibco, #16140-071) to a final concentration ranging form 0 to 100 µM. […] of diluted compounds were then added to each well (final DMSO concentration was less than 1%) and incubated under 5% CO2 atmosphere at 37°C for 120 h. After incubating, 15 µL of AlamarBlue (ThermoFisher, #DAL1100) reagent was added per well, contents of plates were mixed in an orbital shaker (Biosan, Latvia) and further incubated for 3-5 h at 37°C under 5% CO2 atmosphere. Number of living cells was estimated using a microplate spectrophotometer (Tecan Infinite M200Pro, Switzerland) measuring fluorescent signal at the excitation wavelength (λEx) of 540 nm and emission wavelength (λEm) of 590 nm.
(§2) IC50 was calculated using Magellan 7.2 software (Tecan, Switzerland) approximating experimental points by four-parameter logistic model with the optimization by Levenberg-Marquardt (table 7, table 7).

[2] = test system: KG-1; assay: Cell-based antiproliferative test (AlamarBlue), KG-1; settings: Homo sapiens, KG-1; 120 h incubation; average values of several tests; read-out: KG-1 IC50, mkM
Description: as §1, §2

[3] = Chemical stability in simulated gastric fluid (SGF); format: physicochemical; settings: SGF without enzymes, pH=1,4; 10 µm; 2 hours at 37°C; substance amount in % after thermostatting
Description: (§3) Chemical stability of the compounds described herein was determined in simulated gastric fluid and human blood plasma.
SGF concentrate without enzymes, pH=1,4 (Sigma Ireland, cat#01651) was used as simulated gastric fluid. Initial candidate solution (10 mM in DMSO) was diluted with an SGF working solution to a concentration of […] (test solution). The test solution was incubated in a dry block thermostat for 2 hours at 37°C. HPLC with Agilent 1200 liquid chromatography system (Agilent, USA) was employed to determine peak areas of the compounds in test samples, said peak areas corresponding to the initial test time (prior to incubation) and the final test time (after incubation in a dry block thermostat for 2 hours at 37°C). Chromatographic analysis was performed in a gradient elution regime with a flow rate of 1 mL/min. Substance amount in % in a sample after thermostatting was determined.

[4] = General cytotoxicity test on HepG2 cells; format: cell-based; settings: human, 72 h incubation, 200 to 0.78 µM, average values of several tests, read-out: Hep-G2 CC50, mkM
Description: Cell viability was assessed using the above method. Table 6. […] The results are presented as average values of activity obtained in several tests.

[5] = Enzyme stability in human liver microsomes; format: in vitro ADME; settings: pH 7.4; 0,5 mg/mL pooled human liver microsomes; 10 µM compound; 37°C; pH=7,4
Description: Measuring of candidates' enzyme stability enabled estimation of the stability of the present compounds towards the action of enzymes in liver microsomes.
Enzyme degradation rate was measured by incubating the reaction mixture in a dry block thermostat at 37°C, said reaction mixture comprising 0,5 mg/mL of pooled human liver microsomes (XenoTech, USA, cat#H2620), 10 µM compound, 2 mM β-nicotinamide adenine dinucleotide (Carbosynth, UK, cat#NN10871) and 4 mM magnesium chloride in 0,1 M sodium-phosphate buffer, pH=7,4. The reaction was quenched with acetonitrile (100 µL of acetonitrile / 100 µL of the reaction mixture). After quenching, the samples were centrifuged at 10000 rpm for 10 minutes. Supernatant fluid was tested by chromatographic technique using Agilent1200 (Agilent, USA). Chromatographic analysis was performed in a gradient elution regime with a flow rate of 1 mL/min. A graph of the logarithm of substance's peak area as a function of time was made. The dependent factor of the line corresponded to the elimination rate constant K based on which the drug's half-life t1/2 and degradation rate CLint were calculated: Elimination rate constant (k) = (−gradient) [formula] [formula] V(μL/mg) = (volume of incubation(μL))/(protein in the incubation(mg)) [formula] [formula]

[6] = Chemical stability in human blood plasma; format: in vitro ADME; settings: pooled human blood plasma; 10 µM; 4 hours at 37°C; substance amount in % after thermostatting
Description: as §3
Determination of stability in human blood plasma was performed using pooled human blood plasma taken from ten healthy donors. The initial candidate solution (10 mM in DMSO) was diluted with pooled blood plasma to a concentration of […] (test solution). The test solution was incubated in a dry block thermostat for 4 hours at 37°C. HPLC with Agilent 1200 liquid chromatography system (Agilent, USA) was employed to determine peak areas of the compounds in test samples, said peak areas corresponding to the initial test time (prior to incubation) and the final test time (after incubation in a dry block thermostat for 4 hours at 37°C), proteins were preliminarily precipitated with acetonitrile. Chromatographic analysis was performed in a gradient elution regime with a flow rate of 1 mL/min. Substance amount in % in a sample after thermostatting was determined.

[7] = test system: HL-60; assay: Cell-based antiproliferative test (AlamarBlue), HL-60; settings: Homo sapiens, HL-60, 120 h, 120 h incubation; average values of several tests; read-out: HL-60 IC50, mkM
Description: as §1, §2

[8] = Permeability through Caco-2 cell monolayer; format: in vitro ADME; settings: human, Caco-2; for Papp A→B at 2 h, 10 µM: A->B transfer, pH 6.5 -> pH 7.4, 2 hours at 37 °C; for efflux ratio at 2 h, 10 µM: efflux = Papp B-A / Papp A-B
Description: Estimation of permeability through Caco-2 cell monolayer enables assessment of the ability of the substances to penetrate through biological membranes by means of both active and passive transport.
Intestinal epithelial cells Caco-2 were grown on filter inserts (pore size 0.4 µm, BD Falcon with High Density) for 21 days; monolayer integrity was then checked using Lucifer Yellow (Sigma-Aldrich, USA) according to the standard protocol. In A->B transfer ("intestinal lumen" - "blood stream" transfer), solutions of the test substances in buffer, pH 6.5 (HBSS, 10 mM HEPES, 15 mM glucose) at a concentration of 10 µM were added to the upper chamber; whereas the lower chamber was filled with buffer, pH 7.4 (HBSS, 10 mM HEPES, 15 mM Glucose, 1% BSA). In B->A transfer ("blood stream" - "intestinal lumen" transfer), the upper chamber was filled with buffer, pH 6.5, whereas the solutions of the test substances in buffer, pH 7.4, at a concentration of 10 µM were added to the lower chamber. A highly permeable substance propranolol was used as a control.
After 2 hours incubation at 37 ° C under an atmosphere containing 5% CO2, the amounts of the test substances in the upper and lower chambers were measured by HPLC using an Agilent1200 HPLC system (Agilent, USA), proteins were preliminarily precipitated with acetonitrile. Chromatographic analysis was performed in a gradient elution regime with a flow rate of 1 mL/min. The peak areas corresponding to the compounds were detected on chromatograms.
The value was calculated using the formula: efflux = Papp B−A /Papp A−B , [formula] where • Papp A-E - the value of permeability direct analysis A→ B; • Papp B-A - the value of the permeability of the reverse analysis B→ A.

SMILES | IC50 [1] [µM] | IC50 [2] [µM] | Stability in SGF, % [3] [%] | CC50 at 72 h ([4]; HepG2 cells) [µM] | microsomal CLint at 10 µM [5] [µL/min/mg] | Stability in blood plasma, % [6] [%] | IC50 [7] [µM] | Papp A→B at 2 h, 10 µM [8] [×10⁻⁶ cm/s] | efflux ratio at 2 h, 10 µM [8] | CC50 at 72 h [4] [µM]
COC1CN(C(=O)c2cnc3cncc(-c4ccc(-c5cnn(C)c5)cc4)c3c2)C1 [CDK8-3-15, (3-Methoxyazetidin-1-yl)(5-(4-(1-methyl-1H-pyrazol-4-yl)phenyl)-1,7-naphthyridin-3-yl) methanone] | 2.45 | 1.13 | 99.3 | > 100 | 15.2 | 75.1 | > 60 | – | – | –
Cn1cc(-c2ccc(-c3ccnc4ccc(N5CCCC5=O)cc34)cc2)cn1 [CDK8-6-13, 1-(4-(4-(1-Methyl-1H-pyrazol-4-yl)phenyl)quinolin-6-yl) pyrrolidin-2-one] | 19.7 | 12.3 | 99.7 | > 200 | 22.6 | 98.9 | > 60 | – | – | –
Cn1cc(-c2ccc(-c3cncc4ncc(C(=O)N5CCCC5)cc34)cc2)cn1 [CDK8-3-16, (5-(4-(1-Methyl-1H-pyrazol-4-yl)phenyl)-1,7-naphthyridin-3 - yl)(pyrrolidin-1-yl) methanone] | 2.87 | 0.94 | 100 | > 100 | 27.8 | 100 | > 60 | – | – | –
NC(=O)c1ccc(-n2cnc3ccc(N4CC(C(=O)Nc5ccccc5)C4)cc32)cc1 [CDK8-1-6, 1-(1-(4-Carbamoylphenyl)-1H-benzo[d]imidazol-6-yl)-N-phenylazetidine-3-carboxamide] | 1.64 | > 10 | 98.9 | > 100 | 23.4 | 100 | 8.18 | – | – | –
O=C(c1cccnc1)c1c[nH]c2ncc(-c3ccc(N4CCOCC4)cc3)cc12 [CDK8-4-37, (5-(4-Morpholinophenyl)-1H-pyrrolo[2,3-b]pyridin-3-yl) (pyridin-3-yl)methanone] | 0.13 | 5 | 100 | 118 | – | 100 | – | 8.63 | 1.08 | –
CN(C)c1ccc(-c2cnc3[nH]cc(C(=O)c4cccnc4)c3c2)cc1 [CDK8-4-39, (5-(4-(Dimethylamino)phenyl)-1H-pyrrolo[2,3-b]pyridin-3-yl) (pyridin-3-yl)methanone] | 0.19 | 27.7 | 100 | > 100 | 23.6 | 100 | – | – | – | –
CN(C)c1ccc(-c2cnc3[nH]cc(C(=O)c4ccncc4)c3c2)cc1 [CDK8-4-40, (5-(4-(Dimethylamino)phenyl)-1H-pyrrolo[2,3-b]pyridin-3-yl) (pyridin-4-yl) methanone] | 5.56 | 25 | 100 | > 100 | 35 | 100 | – | – | – | –
O=C(c1ccncc1)c1c[nH]c2ncc(-c3ccc(N4CCOCC4)cc3)cc12 [CDK8-4-38, (5-(4-Morpholinophenyl)-1H-pyrrolo[2,3-b]pyridin-3-yl) (pyridin-4-yl)methanone] | 0.39 | 60 | 100 | > 100 | 20 | 100 | – | 13.9 | 0.28 | –
O=C(c1ccc2ncn(-c3ccc(-c4cn[nH]c4)cc3)c2c1)N1CCC1 [CDK8-1-5, (1-(4-(1H-Pyrazol-4-yl)phenyl)-1H-benzo[d]imidazol-6-yl)(azetidin-1-yl) methanone] | 1.24 | 4.71 | 99.5 | 81.1 | – | 98.1 | > 60 | – | – | –
Cn1cc(-c2ccc(-c3ccc4nccc(C(=O)N5CCCCC5)c4c3)cc2)cn1 [CDK8-5-8, (6-(4-(1-Methyl-1H-pyrazol-4-yl)phenyl)quinolin-4-yl) (piperidin-1-yl)methanone] | 3.73 | 17.5 | 100 | > 50 | – | 98.2 | 24.8 | – | – | –
COc1cc(-c2cnc3[nH]cc(C(=O)c4ccncc4)c3c2)ccc1N1CCOCC1 [CDK8-4-31, (5-(3-Methoxy-4-morpholinophenyl)-1H-pyrrolo[2,3-b]pyridin-3-yl) (pyridin-4-yl) methanone] | 0.61 | 21.7 | 99.9 | – | – | – | – | 36.1 | 0.35 | > 100
